{
  "source": "patent US20240366728A1",
  "about": "“Treatment of Diabetes Mellitus” (Carmot Therapeutics Inc., priority 2023, published 2024)",
  "key": {"[1]": {"tested_on": "lean C57BL/6J, GLP-1R+/+ and GLP-1R-/- mice", "experiment": "single intracerebroventricular injection: food consumption and body weight", "details": "for food consumption and body weight (in words) / body weight decreased / body weight decreased compared to liraglutide / food consumption lowered compared to liraglutide / food consumption lowered compared to vehicle: ICV 0.025 nmol; for body weight decreased / body weight decreased compared to liraglutide / food consumption lowered compared to liraglutide / food consumption lowered compared to vehicle: lean C57BL/6J"}, "[2]": {"tested_on": "lean C57BL/6J mice", "experiment": "intraperitoneal glucose tolerance test in lean mice"}, "[3]": {"experiment": "Phase 1 first-in-human SAD/MAD study: pharmacokinetics", "assay_type": "in vivo", "details": "for Tmax: median Tmax", "excerpt": "This was a randomized, double-blind, placebo-controlled, dose escalation first-in-human (FIH) conducted from December 2018 to January 2020 at a study center in Victoria, Australia in accordance with principles of the Declaration of Helsinki (Ethical Principles for Medical Research Involving Human Subjects), and the NHMRC National Statement on Ethical Conduct in Human Research 2007 (updated 2018). (Registered on the Australian New Zealand Clinical Trials Registry [ANZCTR] under the identifier: ACTRN12618001988246).\nDaily doses were given on Day 2 to Day 14. Cohort M1 was dosed with the highest dose level, determined based on the safety and PK data from the preceding Part 1 (SAD), and doses were decreased sequentially for Cohorts M2 and M3 (FIG. 46B).\nCharacterization of PK profile: PK parameters included maximum concentration (Cmax), time to maximum concentration (Tmax), area under the plasma concentration-time curve (AUC). Blood samples were collected within two hours prior to dosing for pre-dose samples and within ±10 minutes of the nominal/planned time post-dose. For Part 1 (SAD) participants, samples were taken at −2 to 0 hr (pre-dose), 1, 2, 3, 4, 6, 8, 12, 16, 20 hr (Day 1), 24, 30, 36 hr (Day 2), 48 hr (Day 3) and on Day 8 (±1 day, follow-up) post-dose. For Part 2 (MAD) participants, collection occurred −2 to 0 hr (pre-dose), 2, 3, 4, 6, 8, 12 hr (Day 1), 24 hr (Day 2), 48, 60 hr (Day 3), 72 hr (Day 4), 96 hr (Day 5). For Days 7, 8, 11 and 14, samples were taken −2 to 0 hr (pre-dose), 12 hr on Day 7, 2, 4, 6, 8, 12 hr on Day 14, 24, 36 hr on Day 15, 48 hr on Day 16 and on Day 21 (+1 day, follow-up) post-dose.\nEstimates for PK parameters are tabulated and summarized by descriptive statistics (mean, standard deviation [SD], median, minimum, and maximum, coefficient of variation [CV %], geometric mean and geometric CV %). Dose proportionality was analyzed using the power model with log-transformed PK parameter values and log-transformed dose. The power model was used to estimate the slope parameter and the 90% confidence intervals (CIs) for the slope. Dose proportionality was generally concluded if the 90% CIs around the slope estimate include the value of 1."}, "[4]": {"experiment": "clinical", "design": "species or system human", "details": "in vivo", "method": "Blood samples, pre- and post-dose, were collected during the in-house treatment periods for the assessment of PD and PK endpoints. […] In addition, fasting plasma glucose (FPG), insulin, C-peptide, GCG and HOMA-IR after ≥10 hours overnight fast and VAS assessments were done on Days 1, 2 and 3.\nIn participants with T2DM, blood samples were collected on Days 2, 3 and 4 for assessing PK profiles and for PD profiles, on Days 2 and 3. Fasting plasma glucose (FPG), insulin, C-peptide, GCG and HOMA-IR after ≥10 hours overnight fast on Days 1, 2, 3 and 4. A mixed meal tolerance test (MMTT) and prospective meal consumption (ad libitum meal) was administered on Day 4. Appetite and food intake were assessed using a VAS questionnaire (appetite, hunger and satiety) on Days 1, 2, 3 and 4."}, "[5]": {"experiment": "in vivo", "details": "male, CD-1, mouse, sc", "protocol": "Blood was kept on ice until centrifuged at 4600 rpm for five minutes at 4° C. Plasma was stored at −80° C. until analysis. Compounds were extracted from plasma and quantified against a standard curve using an AB Sciex 7500+LC-MS/MS system (FIG. 5)."}},
  "data": [
    {"compound": "CCCCCCCCCCCCCCCC(=O)N[C@@H](CCC(=O)NCCCC[C@H](NC(=O)[C@H](CO)NC(=O)[C@@H]1CCCN1C(=O)[C@@H]1CCCN1C(=O)[C@@H]1CCCN1C(=O)[C@H](C)NC(=O)CNC(=O)[C@H](CO)NC(=O)[C@H](CO)NC(=O)[C@@H]1CCCN1C(=O)CNC(=O)CNC(=O)[C@H](C)NC(=O)[C@H](CC(C)C)NC(=O)[C@H](CC(C)C)NC(=O)[C@H](Cc1c[nH]c2ccccc12)NC(=O)[C@H](CC(N)=O)NC(=O)[C@@H](NC(=O)[C@H](Cc1ccccc1)NC(=O)[C@H](CCC(=O)O)NC(=O)C(C)(C)NC(=O)[C@H](C)NC(=O)[C@H](C)NC(=O)[C@H](CCC(N)=O)NC(=O)[C@H](CCCCN)NC(=O)[C@H](CC(=O)O)NC(=O)[C@H](CC(C)C)NC(=O)[C@H](Cc1ccc(O)cc1)NC(=O)[C@@H](NC(=O)[C@H](CO)NC(=O)[C@H](Cc1ccc(O)cc1)NC(=O)[C@H](CC(=O)O)NC(=O)[C@H](CO)NC(=O)[C@@H](NC(=O)[C@H](Cc1ccccc1)NC(=O)[C@@H](NC(=O)CNC(=O)[C@H](CCC(=O)O)NC(=O)CSCC(=O)NCCN1C(=O)CSC1=O)[C@@H](C)O)[C@@H](C)O)[C@@H](C)CC)C(C)C)C(N)=O)C(=O)O", "note": "[CT-859]", "values": [
      {"measurement": "food consumption and body weight vs liraglutide after ICV (in words)", "setting": "[1]", "value": "decreased food consumption and body weight more than liraglutide"},
      {"measurement": "food consumption and body weight (in words)", "setting": "[1]; GLP-1R+/+ mice", "value": "suppressed food consumption and reduced body weight"},
      {"measurement": "food consumption and body weight (in words)", "setting": "[1]; GLP-1R-/- mice", "value": "no effect"},
      {"measurement": "food consumption, body weight, blood glucose after ICV (in words)", "setting": "[1]; GLP-1R-KO mice, 0.025 and 1 nmol/kg", "value": "did not have any significant effects on food consumption, body weight, or blood glucose"},
      {"measurement": "food consumption, body weight after ICV (in words)", "setting": "[1]; GLP-1R-WT mice, 0.025 and 1 nmol/kg, up to 72 h", "value": "dose dependent reduction of cumulative food consumption"},
      {"measurement": "body weight decreased", "setting": "[1]; 24 hours", "value": 9, "unit": "%"},
      {"measurement": "body weight decreased compared to liraglutide", "setting": "[1]; 24 hours", "value": 5, "unit": "%"},
      {"measurement": "food consumption lowered compared to liraglutide", "setting": "[1]; 24 hours", "value": 45, "unit": "%"},
      {"measurement": "food consumption lowered compared to vehicle", "setting": "[1]; 24 hours", "value": 63, "unit": "%"},
      {"measurement": "body weight decreased", "setting": "[1]; 48 hours", "value": 5, "unit": "%"},
      {"measurement": "body weight decreased compared to liraglutide", "setting": "[1]; 48 hours", "value": 5, "unit": "%"},
      {"measurement": "food consumption lowered compared to liraglutide", "setting": "[1]; 48 hours", "value": 27, "unit": "%"},
      {"measurement": "food consumption lowered compared to vehicle", "setting": "[1]; 48 hours", "value": 38, "unit": "%"},
      {"measurement": "food intake and body weight vs equal dose of liraglutide (in words)", "setting": "[1]; wildtype mice, ICV […], up to 19 h", "value": "significantly greater reduction of food intake and body weight"},
      {"measurement": "in vivo potency vs liraglutide (in words)", "setting": "[2]", "value": "more potent than liraglutide in vivo"},
      {"measurement": "duration of glucose lowering (in words)", "setting": "[2]; lean C57BL/6J and DIO mice, single 20 nmol/kg", "value": "remained efficacious up to 48 hours post-administration"},
      {"measurement": "ED50 for improving post-prandial glucose in ipGTT", "setting": "[2]; lean C57BL/6J mice, 4 h after SC dose", "value": 0.46, "unit": "nmol/kg"},
      {"measurement": "acute effect on GLUC AUC (in words)", "setting": "[2]; lean mice, 20 nmol/kg, 4 h after administration", "value": "acute reduction of glucose (GLUC) AUC"},
      {"measurement": "reduction in GLUC AUC vs. vehicle", "setting": "[2]; lean mice, 20 nmol/kg, 48 hours", "value": 45, "unit": "%"}
    ]},
    {"compound": "CCCCCCCCCCCCCCCC(=O)N[C@@H](CCC(=O)NCCCC[C@H](NC(=O)[C@H](CO)NC(=O)[C@@H]1CCCN1C(=O)[C@@H]1CCCN1C(=O)[C@@H]1CCCN1C(=O)[C@H](C)NC(=O)CNC(=O)[C@H](CO)NC(=O)[C@H](CO)NC(=O)[C@@H]1CCCN1C(=O)CNC(=O)CNC(=O)[C@H](C)NC(=O)[C@H](CC(C)C)NC(=O)[C@H](CC(C)C)NC(=O)[C@H](Cc1c[nH]c2ccccc12)NC(=O)[C@H](CC(N)=O)NC(=O)[C@@H](NC(=O)[C@H](Cc1ccccc1)NC(=O)[C@H](CCC(=O)O)NC(=O)C(C)(C)NC(=O)[C@H](C)NC(=O)[C@H](C)NC(=O)[C@H](CCC(N)=O)NC(=O)[C@H](CCCCN)NC(=O)[C@H](CC(=O)O)NC(=O)[C@H](CC(C)C)NC(=O)[C@H](Cc1ccc(O)cc1)NC(=O)[C@@H](NC(=O)[C@H](CO)NC(=O)[C@H](Cc1ccc(O)cc1)NC(=O)[C@H](CC(=O)O)NC(=O)[C@H](CO)NC(=O)[C@@H](NC(=O)[C@H](Cc1ccccc1)NC(=O)[C@@H](NC(=O)CNC(=O)[C@H](CCC(=O)O)NC(=O)CSCC(=O)NCCN1CCCCC1=O)[C@@H](C)O)[C@@H](C)O)[C@@H](C)CC)C(C)C)C(N)=O)C(=O)O", "note": "[CT-868]", "values": [
      {"measurement": "plasma concentrations after 14 days of dosing vs dose (in words)", "setting": "[3]; MAD 0.75-5.0 mg", "value": "dose-related but not dose-proportional"},
      {"measurement": "plasma concentrations over repeated daily dosing (in words)", "setting": "[3]; MAD 0.75-5.0 mg", "value": "reached a plateau after a few days of dosing"},
      {"measurement": "Tmax", "setting": "[3]; human, in vivo, 0.5 mg", "value": 3, "unit": "h"},
      {"measurement": "AUC0-t", "setting": "[3]; human, in vivo, 1.5 mg", "value": "154.2 [45.7%] h*ng/ml"},
      {"measurement": "AUC(0-inf)", "setting": "[3]; human, in vivo, 1.5 mg", "value": "184.9 [47.6%] h*ng/ml"},
      {"measurement": "Cmax, geometric mean (% CV)", "setting": "[3]; human, in vivo, 1.5 mg", "value": "5.62 [28.1%] ng/ml"},
      {"measurement": "half-life", "setting": "[3]; human, in vivo, 1.5 mg", "value": 77.3, "unit": "h"},
      {"measurement": "median Tmax", "setting": "[3]; human, in vivo, 1.5 mg", "value": 8.0, "unit": "h"},
      {"measurement": "AUC(0-inf)", "setting": "[3]; human, in vivo, 1.5 mg, AUC0-inf", "value": 209, "unit": "ng·h/mL"},
      {"measurement": "AUC0-t", "setting": "[3]; human, in vivo, 1.5 mg, AUC0-t", "value": 167, "unit": "ng·h/mL"},
      {"measurement": "Cmax", "setting": "[3]; human, in vivo, 1.5 mg, Cmax, geometric mean (% CV)", "value": 7.79, "unit": "ng/mL"},
      {"measurement": "Tmax", "setting": "[3]; human, in vivo, 1.5 mg", "value": 6, "unit": "h"},
      {"measurement": "Tmax", "setting": "[3]; human, in vivo, 7.5 mg", "value": 20, "unit": "h"},
      {"measurement": "half-life", "setting": "[3]; human, in vivo, 11 mg", "value": 19.7, "unit": "h"},
      {"measurement": "Tmax", "setting": "[3]; human, in vivo, predominant range", "value": "3 to 12", "unit": "h"},
      {"measurement": "mean Cmax vs dose (in words)", "setting": "[3]; in vivo", "value": "increased with increasing dose level"},
      {"measurement": "time to maximum plasma concentrations after the first dose", "setting": "[3]; in vivo", "value": "48 to 96", "unit": "h"},
      {"measurement": "incremental AUC", "setting": "[4]; human", "value": "128,267 ng/ml*min"},
      {"measurement": "terminal half-life (t1/2)", "setting": "[4]; human", "value": "1,190 minutes"},
      {"measurement": "AUC", "setting": "[4]; human, AUC", "value": 3490, "unit": "ng·h/mL"},
      {"measurement": "AUC", "setting": "[4]; human, AUC (0-tau)", "value": 3860, "unit": "ng·h/mL"},
      {"measurement": "Cmax", "setting": "[4]; human, Cmax", "value": 247, "unit": "ng/mL"},
      {"measurement": "Cmax", "setting": "[4]; human, Maximum Concentration of CT-868 (Cmax)", "value": 274, "unit": "ng/mL"},
      {"measurement": "Tmax", "setting": "[4]; human, Time of Maximum Concentration of CT-868 (Tmax)", "value": 10.9, "unit": "h"},
      {"measurement": "Tmax", "setting": "[4]; human, Tmax", "value": 12.2, "unit": "h"},
      {"measurement": "AUC", "setting": "[4]; human, incremental AUC", "value": 2260, "unit": "ng·h/mL"},
      {"measurement": "half-life", "setting": "[4]; human, terminal half-life", "value": "~20", "unit": "h"},
      {"measurement": "half-life", "setting": "[4]; human, terminal half-life (t1/2)", "value": 19.8, "unit": "h"},
      {"measurement": "time at which maximum plasma concentrations were attained post-dose", "setting": "[4]", "value": "11 to 12", "unit": "h"},
      {"measurement": "AUC(0-inf)", "setting": "[5]", "value": 7.92, "unit": "µM·h"},
      {"measurement": "half-life", "setting": "[5]", "value": 7, "unit": "h"}
    ]}
  ]
}
